Source: US20020152479A1, “Car modulators: screening and treatment of hypercholesterolemia” (priority 2000, published 2002)
Where two headings read alike, the source gives them in different places. Where no end group is shown, it is not given here. rhodamine = not defined here

Assays:
[1] = target: T1, GST-CARα ligand binding domain fusion protein (Homo sapiens, UniProt Q14994); assay: Peptide sensor fluorescence polarization assay, GST-CARα ligand binding domain with rhodamine-[…] (SRC-1 peptide)
T1 construct: made in house; host or cells: E. coli
T1 sequence (Q14994 76-348 isoform Q14994-2): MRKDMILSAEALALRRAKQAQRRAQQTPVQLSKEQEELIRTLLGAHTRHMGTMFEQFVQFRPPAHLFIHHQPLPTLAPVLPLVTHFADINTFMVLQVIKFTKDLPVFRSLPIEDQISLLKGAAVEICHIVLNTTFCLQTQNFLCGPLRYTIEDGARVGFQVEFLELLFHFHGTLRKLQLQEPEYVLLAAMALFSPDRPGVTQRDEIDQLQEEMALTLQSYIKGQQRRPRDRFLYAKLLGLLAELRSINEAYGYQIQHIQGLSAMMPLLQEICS
Procedure: (§1) A portion of DNA encoding the ligand binding domain of CARα encoding amino acids 76 to 348 (GenBank Accession No. CAA83016) was subcloned into a glutathione S-transferase (GST) fusion protein expression vector (pGEX-2TK, Amersham-Pharmacia) to create a vector that encodes a fusion protein in which GST is fused to the amino terminus of the CAR ligand binding domain. The GST-CAR protein was expressed in E. coli and purified over a glutathione affinity column. The GST-CAR fusion protein was incubated with a rhodamine-labeled peptide derived from the receptor binding domain of the coactivator SRC-1, rhodamine-[…] (SEQ ID NO: 7) (see WO 99/27365). The fluorescence polarization was measured as described in WO 99/27365.
(§2) Using the compounds set out in Table 1, a peptide sensor assay was carried out using the method of Example 3. Fusion proteins encoding the ligand binding domain of CARα (GST-CARα; see Example 3) and CARβ (GST-CARβ) were used in the assay. A portion of the DNA for the ligand binding domain of CARβ (GenBank Accession No. AF009327) encoding amino acids 86 to 358 was subcloned into a glutathione S-transferase (GST) fusion protein expression vector (pGEX-2TK, Amersham-Pharmacia) to create a vector that encodes a fusion protein in which GST is fused to the amino terminus of the CARβ ligand binding domain (GST-CARβ). The GST-CARβ was purified using glutathione affinity chromatography.
(§3) The notation ND means not determined.

[2] = test system: CAR; assay: RARE-luciferase reporter gene assay in CV-1 cells with increasing CAR expression plasmid (Example 4); assay type: cell-based; settings: 10 μM compound, 24 h
[3] = target: T2, CARα (Homo sapiens, UniProt Q14994); assay type: cell-based
T2 construct: expressed in transfected cells; host or cells: CV-1 cells
T2 sequence (Q14994 1-348 isoform Q14994-2): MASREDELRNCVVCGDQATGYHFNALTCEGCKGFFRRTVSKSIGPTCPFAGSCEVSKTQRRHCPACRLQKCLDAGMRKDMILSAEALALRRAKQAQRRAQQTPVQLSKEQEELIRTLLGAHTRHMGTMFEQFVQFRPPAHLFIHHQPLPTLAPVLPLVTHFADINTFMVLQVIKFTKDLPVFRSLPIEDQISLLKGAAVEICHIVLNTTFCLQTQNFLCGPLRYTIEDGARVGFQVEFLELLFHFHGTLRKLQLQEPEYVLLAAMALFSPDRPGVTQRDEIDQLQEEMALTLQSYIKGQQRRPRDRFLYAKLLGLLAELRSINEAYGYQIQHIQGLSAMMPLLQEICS

[4] = target: T3, CARβ (Mus musculus, UniProt O35627); assay type: cell-based
T3 construct: expressed in transfected cells; host or cells: CV-1 cells
T3 sequence (O35627 1-358): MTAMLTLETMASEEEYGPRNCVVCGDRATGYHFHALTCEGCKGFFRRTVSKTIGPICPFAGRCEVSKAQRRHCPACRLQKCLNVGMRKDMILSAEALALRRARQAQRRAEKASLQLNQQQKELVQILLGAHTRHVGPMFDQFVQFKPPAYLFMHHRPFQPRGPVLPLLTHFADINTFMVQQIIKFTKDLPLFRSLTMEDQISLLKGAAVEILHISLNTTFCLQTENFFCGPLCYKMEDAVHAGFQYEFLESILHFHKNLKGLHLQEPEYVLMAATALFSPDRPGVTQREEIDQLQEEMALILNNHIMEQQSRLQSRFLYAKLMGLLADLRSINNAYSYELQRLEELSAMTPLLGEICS

[5] = target: T4, GST-CARβ ligand binding domain fusion protein (Mus musculus, UniProt O35627); assay: Peptide sensor fluorescence polarization assay, GST-CARβ ligand binding domain; settings: half-maximal concentration of stimulation of peptide sensor assay signal
T4 construct: encoding amino acids 86 to 358 was subcloned; made in house
T4 sequence (O35627 86-358): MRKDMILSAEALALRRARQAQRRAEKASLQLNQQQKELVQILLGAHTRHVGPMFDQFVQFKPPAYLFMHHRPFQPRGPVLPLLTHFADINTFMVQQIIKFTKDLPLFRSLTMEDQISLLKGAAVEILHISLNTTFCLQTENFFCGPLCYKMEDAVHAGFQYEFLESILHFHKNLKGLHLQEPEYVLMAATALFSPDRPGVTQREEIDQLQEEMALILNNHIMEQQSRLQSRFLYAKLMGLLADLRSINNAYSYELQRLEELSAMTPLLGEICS
Procedure: as §1, §2, §3

[6] = Plasma cholesterol, HDL cholesterol and triglycerides in wild-type C57B1/6 mice; assay type: in vivo; settings: single i.p. 3 mg/kg, four days after dosing
[7] = target: T5, mouse CAR (Mus musculus, UniProt O35627); settings: Tzameli et al. (2000); read-out: EC50, upregulation of CAR-mediated transcription; cited from earlier work
T5 sequence (O35627 1-358): T3 sequence (O35627 1-358)

[8] = Total plasma cholesterol after TCPOBOP in CAR wild-type, heterozygous and knockout mice; assay type: in vivo; settings: single i.p. 3 mg/kg, four days after dosing
[9] = Lipoprotein particle composition (LDL/VLDL) by electrophoresis of plasma, wild-type and CAR knockout mice; assay type: in vivo; settings: single i.p. 3 mg/kg, four days after dosing
[10] = test system: CYP2B; settings: mouse, in vivo, ip, cited from earlier work
[11] = target: GST-CARβ ligand binding domain fusion protein (mouse, UniProt P08515 1-218 = GST; O35627 86-358); assay: fluorescence polarization peptide sensor assay, with small-molecule agonists
[12] = half-maximal concentration of stimulation of peptide sensor assay signal, read-out: GST-CARα EC50

Molecule: C[C@]12CC[C@@H](O)C[C@@H]1CC[C@@H]1[C@@H]2CC[C@]2(C)C=CC[C@@H]12 [5α-androst-16-en-3α-ol]
- IC50 ([1]; in the presence of 5 μM 5β-pregnan-3,20-dione, read-out: IC50, decrease of fluorescence polarization seen with 5β-pregnan-3,20-dione): 530 nM

Molecule: C[C@@]12CCC[C@H]1[C@@H]1CC[C@H]3C[C@H](O)CC[C@]3(C)[C@H]1CC2 [5α-androstane-3α-ol]
- Transcription of the luciferase reporter gene (normalized luciferase activity) [2]: decreased

Molecule: CC(=O)[C@H]1CC[C@H]2[C@@H]3CC[C@@H]4CC(=O)CC[C@]4(C)[C@H]3CC[C@]12C [5β-pregnan-3,20-dione]
- EC50 [1]: 2500 nM
- Fluorescence polarization between sensor peptide and GST-CAR [1]: increased
- Transcription of the luciferase reporter gene (normalized luciferase activity) [2]: increased transcription

Molecule: CCOC(=O)C(Nc1ccc(OCc2ccccc2)cc1)c1ccccc1 (centres unmarked) [Compound T0037566]
- CMV-CARα, fold increase in normalized luciferase activity over DMSO control [3]: 1.96
- CMV-CARβ, fold increase in normalized luciferase activity over DMSO control [4]: 2.14
- EC50 [1, 12]: 221 nM
- EC50 [5]: 99.1 nM

Molecule: COc1ccc(C2CC(c3ccc(Cl)cc3)=NN2c2ccccc2Cl)c(OC)c1 (centres unmarked) [Compound T0318784]
- CMV-CARα, fold increase in normalized luciferase activity over DMSO control [3]: 1.78
- CMV-CARβ, fold increase in normalized luciferase activity over DMSO control [4]: 3.87
- EC50 [1, 12]: 91.2 nM
- EC50 [5]: 96.7 nM

Molecule: Clc1ccc(CSCc2cc(Sc3c(Cl)cccc3Cl)nc(-c3ccccn3)n2)cc1 [Compound T0434523]
- CMV-CARα, fold increase in normalized luciferase activity over DMSO control [3]: 2.17
- CMV-CARβ, fold increase in normalized luciferase activity over DMSO control [4]: 1.29
- EC50 [1, 12]: 79.7 nM
- EC50 [5]: 52.2 nM

Molecule: CCN(CC)c1ccc(C2C3=C(CC(C)(C)CC3=O)OC3=C2C(=O)CC(C)(C)C3)c(OCc2ccc(Cl)cc2Cl)c1 [Compound T0438248]
- CMV-CARα, fold increase in normalized luciferase activity over DMSO control [3]: 2.92
- CMV-CARβ, fold increase in normalized luciferase activity over DMSO control [4]: 0.96
- EC50 [1, 12]: 5.25 nM
- EC50 [5]: 65.4 nM

Molecule: Clc1cnc(Oc2ccc(Oc3ncc(Cl)cc3Cl)cc2)c(Cl)c1 [TCPOBOP, 1,4-bis[2-(3,5-dichloropyridyloxy)]benzene]
- Reduction in HDL [6]: 40%
- Reduction in total plasma cholesterol [6]: 40%
- Reduction in triglyceride levels [6]: 15-30%
- EC50 [7]: 20 nM
- Plasma cholesterol levels, CAR knockout mice [8]: no effect
- Reduction in total cholesterol, female heterozygous CAR mice (+/−) [8]: 60%
- Total plasma cholesterol, mice with one functional CAR gene (+/−) [8]: decreased total plasma cholesterol
- Total plasma cholesterol, wild-type littermates (+/+) [8]: decreased total plasma cholesterol
- Plasma levels of LDL/VLDL, CAR deficient (knockout) mice [9]: unaffected
- Plasma levels of LDL/VLDL, wild-type mice [9]: significant reduction
- EC50 [5]: 60 nM
- Duration of CYP2B expression induction ([10]; 3 mg/kg): over 20 weeks
- Dose inducing half maximal expression of CYP2B [10]: 0.066 mg/kg

B1: rhodamine-ILRKLLQE (rhodamine-labeled peptide derived from the receptor binding domain of the coactivator SRC-1) (peptide)
peptide: rhodamine-ILRKLLQE
modifications: reading uncertain; also: printed as rhodamine-ILRKLLQE
notes: Labeled 8-mer used as the fluorescence polarization sensor; also called sensor peptide
- binding result [11]: binds
